One assay addresses T1, CPB2.8ΔCTE (Leishmania mexicana, UniProt P36400).
T1 construct: Wild-type recombinant CPB without the C-terminal extention (i.e. CPB2.8ΔCTE); Dr. Jeremy Mottram (Wellcome Centre for Molecular Parasitology, University of Glasgow)
The assay can be described thus: Leishmania mexicana cysteine protease B (CPB) peptidase activity assay (Ki). The format is biochemical. The settings on record: Ki, inhibitors of Leismania mexicana CPB protease. On the procedure:
(§1) Unless otherwise stated, all general chemicals and biochemicals were purchased from either the Sigma Chemical Company, Poole, Dorset, U.K or from Fisher Scientific UK, Loughborough, Leicestershire, U.K. Absorbance assays were carried out in flat-bottomed 96-well plates (Spectra; Greiner Bio-One Ltd., Stonehouse, Gloucestershire, U.K.) using a SpectraMax PLUS384 plate reader (Molecular Devices, Crawley, U.K.). Fluorescence high throughput assays were carried out in either 384-well microtitre plates (Corning Costar 3705 plates, Fisher Scientific) or 96-well ‘U’ bottomed Microfluor W1 microtitre plates (Thermo Labsystems, Ashford, Middlesex, U.K.). Fluorescence assays were monitored using a SpectraMax Gemini fluorescence plate reader (Molecular Devices). For substrates employing either a 7-amino-4-methylcoumarin (AMC) or a 7-amino-4-trifluoromethylcoumarin (AFC) fluorophore, assays were monitored at an excitation wavelength of 365 nm and an emission wavelength of 450 nm and the fluorescence plate reader calibrated with AMC. For substrates employing a 3-amino-benzoyl (Abz) fluorophore, assays were monitored at an excitation wavelength of 310 nm and an emission wavelength of 445 nm; the fluorescence plate reader calibrated with 3-amino-benzamide (Fluka). Unless otherwise indicated, all the peptidase substrates were purchased from Bachem UK, St Helens, Merseyside, UK. Substrates utilizing fluorescence resonance energy transfer methodology (i.e. FRET-based substrates) were synthesized at Incenta Limited using published methods (Atherton & Sheppard, Solid Phase Peptide Synthesis, IRL Press, Oxford, U.K, 1989) and employed Abz (2-aminobenzoyl) as the fluorescence donor and 3-nitro-tyrosine [Tyr(NO2)] as the fluorescence quencher (Meldal, M. and Breddam, K., Anal. Biochem, 195, 141-147, 1991). Hydroxyethylpiperazine ethanesulfonate (HEPES), tris-hydroxylmethyl aminomethane (tris) base, bis-tris-propane and all the biological detergents (e.g. CHAPS, zwittergents, etc.) were purchased from CN Biosciences UK, Beeston, Nottinghamshire, U.K. Glycerol was purchased from Amersham Pharmacia Biotech, Little Chalfont, Buckinghamshire, U.K. Stock solutions of substrate or inhibitor were made up to 10 mM in 100% dimethylsulfoxide (DMSO) (Rathburns, Glasgow, U.K.) and diluted as appropriately required. In all cases the DMSO concentration in the assays was maintained at less than 1% (vol./vol.).
(§2) Assay protocols were based on literature precedent (Table 4; Barrett, A. J., Rawlings, N. D. and Woessner, J. F., 1998, Handbook of Proteolytic Enzymes, Academic Press, London and references therein) and modified as required to suit local assay protocols. Enzyme was added as required to initiate the reaction and the activity, as judged by the change in fluorescence upon conversion of substrate to product, was monitored over time. All assays were carried out at 25±1° C.
Wild-type recombinant CPB without the C-terminal extention (i.e. CPB2.8ΔCTE; Sanderson, S. J., et. al., Biochem. J., 347, 383-388, 2000) was obtained from Dr. Jeremy Mottram (Wellcome Centre for Molecular Parasitology, The Anderson College, University of Glasgow, Glasgow, U.K.). Activity assays were carried out in 100 mM sodium acetate; pH 5.5 containing 1 mM EDTA; 200 mM NaCl and 10 mM DTT (Alves, L. C., et. al., Mol. Biochem. Parasitol, 116, 1-9, 2001) using 0.25 nM enzyme. […] The rate of conversion of substrate to product was derived from the slope of the increase in fluorescence monitored continuously over time.
(§3) The apparent inhibition constant (Ki) for each compound was determined on the basis that inhibition was reversible and occurred by a pure-competitive mechanism. The Ki values were calculated, from the dependence of enzyme activity as a function of inhibitor concentration, by direct regression analysis (Prism v 3.02) using Equation 2 (Cornish-Bowden, A., 1995.). [formula]

A further assay addresses Wild-type cruzipain (Trypanosoma cruzi, UniProt P25779). In words: Trypanosoma cruzi cruzipain peptidase activity assay (Ki). In kind it is biochemical. The settings on record: read-out: Ki, inhibitors of cruzain and cruzipains. Here is the method: as §1, §2
Wild-type cruzipain, derived from Trypanosoma cruzi Dm28 epimastigotes, was obtained from Dr. Julio Scharfstein (Instituto de Biofisica Carlos Chagas Filho, Universidade Federal do Rio de Janeiro, Rio de Janeiro, Brazil). Activity assays were carried out in 100 mM sodium phosphate, pH 6.75 containing 1 mM EDTA and 10 mM L-cysteine using 2.5 nM enzyme. […] The rate of conversion of substrate to product was derived from the slope of the increase in fluorescence monitored continuously over time.
as §3

Structures are written as SMILES.

Wild-type cruzipain, sequence (P25779 whole entry): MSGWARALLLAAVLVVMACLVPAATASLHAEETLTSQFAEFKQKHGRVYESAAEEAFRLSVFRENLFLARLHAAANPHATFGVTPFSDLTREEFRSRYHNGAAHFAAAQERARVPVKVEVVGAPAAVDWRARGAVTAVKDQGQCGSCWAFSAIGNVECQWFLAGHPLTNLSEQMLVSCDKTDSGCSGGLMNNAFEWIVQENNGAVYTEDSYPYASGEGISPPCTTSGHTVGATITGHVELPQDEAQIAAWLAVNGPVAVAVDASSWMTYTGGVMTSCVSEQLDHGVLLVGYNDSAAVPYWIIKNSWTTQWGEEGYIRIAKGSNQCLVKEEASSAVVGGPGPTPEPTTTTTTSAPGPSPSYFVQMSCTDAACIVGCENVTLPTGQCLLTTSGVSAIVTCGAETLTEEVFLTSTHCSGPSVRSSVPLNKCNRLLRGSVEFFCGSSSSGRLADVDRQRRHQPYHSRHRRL
T1 sequence (P36400 126-343, stated change not applied): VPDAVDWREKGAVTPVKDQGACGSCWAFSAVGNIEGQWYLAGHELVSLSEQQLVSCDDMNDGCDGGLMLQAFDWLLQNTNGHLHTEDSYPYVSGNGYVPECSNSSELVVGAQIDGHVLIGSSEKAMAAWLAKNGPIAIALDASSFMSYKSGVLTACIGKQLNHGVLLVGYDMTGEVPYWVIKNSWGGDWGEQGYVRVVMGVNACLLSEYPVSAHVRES

As to `CC(C)C[C@H](NC(=O)c1cccc(CN)c1)C(=O)N1CC[C@@H]2[C@H]1C(=O)CN2C(=O)[C@@H](C)c1ccccc1` [Example 177, (3aR,6aS)-3-Aminomethyl-N-{(1S)-3-methyl-1-[6-oxo-4-((2S)-2-phenyl-propionyl)-hexahydro-pyrrolo[3,2-b]pyrrole-1-carbonyl]-butyl}-benzamide], the Ki at CPB2.8ΔCTE was < 5 µM. For `COc1cc(OC)cc(C(=O)N2CC(=O)[C@@H]3[C@H]2CCN3C(=O)[C@H](CC(C)C)NC(=O)c2ccc(N(C)C)cc2)c1` [Example 112, (3aR,6aS)-N-{(1S)-1-[4-(3,5-Dimethoxy-benzoyl)-6-oxo-hexahydropyrrolo[3,2-b]pyrrole-1-carbonyl]-3-methyl-butyl}-4-dimethylamino-benzamide], the Ki at CPB2.8ΔCTE is < 5 µM. For `CCn1nc(C)cc1C(=O)N[C@@H](Cc1ccc(O)cc1)C(=O)N1CC[C@@H]2[C@H]1C(=O)CN2C(=O)c1ccccc1S(C)(=O)=O` [Example 313, (3aR,6aS)-2-Ethyl-5-methyl-2H-pyrazole-3-carboxylic acid {(1S)-1-(4-hydroxy-benzyl)-2-[4-(2-methanesulfonylbenzoyl)-6-oxo-hexahydropyrrolo[3,2-b]pyrrole-1-yl]-2-oxo-ethyl}-amide], on Wild-type cruzipain, the Ki is < 5 µM. `CC(C)C[C@H](NC(=O)c1ccc(N(C)C)cc1)C(=O)N1CC[C@@H]2[C@H]1C(=O)CN2C(=O)c1ccccn1` [Example 79, (3aR,6aS)-4-Dimethylamino-N-{(1S)-3-methyl-1-[6-oxo-4-(pyridine-2-carbonyl)-hexahydro-pyrrolo[3,2-b]pyrrole-1-carbonyl]-butyl}-benzamide]: the Ki at Wild-type cruzipain is < 5 µM. Regarding `Cc1ccccc1C(=O)N1CC(=O)[C@@H]2[C@H]1CCN2C(=O)[C@H](CC(C)C)NC(=O)c1ccc(N(C)C)cc1` [Example 53, (3aR,6aS)-4-Dimethylamino-N-{(1S)-3-methyl-1-[4-(2-methyl-benzoyl)-6-oxo-hexahydro-pyrrolo[3,2-b]pyrrole-1-carbonyl]-butyl}-benzamide], the Ki at Wild-type cruzipain is < 5 µM. `CC(C)C[C@H](NC(=O)c1ccc(C(C)(C)C)cc1)C(=O)N1CC[C@@H]2[C@H]1C(=O)CN2C(=O)c1ccccn1` [Example 4, (3aR,6aS)-4-tert-Butyl-N-{(1S)-3-methyl-1-[6-oxo-4-(pyridine-2-carbonyl)-hexahydro-pyrrolo[3,2-b]pyrrole-1-carbonyl]-butyl}-benzamide]: on Wild-type cruzipain, the Ki was < 5 µM.

With `O=C(N[C@@H](Cc1ccc(O)cc1)C(=O)N1CC[C@@H]2[C@H]1C(=O)CN2C(=O)c1ccc2ccccc2c1)c1cccc2ccccc12` [Example 302, (3aR,6aS)-Naphthalene-1-carboxylic acid {(1S)-1-(4-hydroxy-benzyl)-2-[4-(naphthalene-2-carbonyl)-6-oxo-hexahydro-pyrrolo[3,2-b]pyrrol-1-yl]-2-oxo-ethyl}-amide], the Ki on Wild-type cruzipain was < 5 µM. For `O=C(N[C@@H](Cc1ccc(O)cc1)C(=O)N1CC[C@@H]2[C@H]1C(=O)CN2C(=O)c1ccccc1)c1cccc2cccnc12` [Example 297, (3aR,6aS)-Quinoline-8-carboxylic acid [(1S)-2-(4-benzoyl-6-oxo-hexahydro-pyrrolo[3,2-b]pyrrole-1-yl)-1-(4-hydroxy-benzyl)-2-oxo-ethyl]-amide], the Ki at Wild-type cruzipain was < 5 µM.

In the case of `CC(C)C[C@H](NC(=O)c1ccc(N(C)C)cc1)C(=O)N1CC[C@@H]2[C@H]1C(=O)CN2C(=O)CN(C)C` [Example 227, (3aR,6aS)-4-Dimethylamino-N-{(1S)-1-[4-(2-dimethylamino-acetyl)-6-oxo-hexahydro-pyrrolo[3,2-b]pyrrole-1-carbonyl]-3-methyl-butyl}-benzamide], the Ki at Wild-type cruzipain was < 5 µM. `CC(C)C[C@H](NC(=O)c1ccc(N(C)C)cc1)C(=O)N1CC[C@@H]2[C@H]1C(=O)CN2C(=O)[C@@H]1CCCCN1` [Example 217, (3aR,6aS)-4-Dimethylamino-N-{(1S)-3-methyl-1-[6-oxo-4-((2S)-piperidine-2-carbonyl)-hexahydro-pyrrolo[3,2-b]pyrrole-1-carbonyl]-butyl}-benzamide]: the Ki on Wild-type cruzipain was < 5 µM. Regarding `CC(C)C[C@H](NC(=O)c1ccc(N(C)C)cc1)C(=O)N1CC[C@@H]2[C@H]1C(=O)CN2C(=O)[C@@H]1C[C@@H](O)CN1` [Example 218, (3aR,6aS)-4-Dimethylamino-N-{(1S)-1-[4-((2S,4R)-4-hydroxy-pyrrolidine-2-carbonyl)-6-oxo-hexahydro-pyrrolo[3,2-b]pyrrole-1-carbonyl]-3-methyl-butyl}-benzamide], on Wild-type cruzipain, the Ki was < 5 µM. `CC(C)C[C@H](NC(=O)c1ccc(N(C)C)cc1)C(=O)N1CC[C@@H]2[C@H]1C(=O)CN2C(=O)c1ccc(N2CCOCC2)nc1` [Example 94, (3aR,6aS)-4-Dimethylamino-N-{(1S)-3-methyl-1-[4-(6-morpholin-4-yl-pyridine-3-carbonyl)-6-oxo-hexahydro-pyrrolo[3,2-b]pyrrole-1-carbonyl]-butyl}-benzamide]: the Ki at Wild-type cruzipain is < 5 µM. Still for that read-out and setting: the figure for `CC(C)C[C@H](NC(=O)c1ccc(N(C)C)cc1)C(=O)N1CC[C@@H]2[C@H]1C(=O)CN2C(=O)[C@@H]1CCCN1` [Example 156, (3aR,6aS)-4-Dimethylamino-N-{(1S)-3-methyl-1-[6-oxo-4-((2S)-pyrrolidine-2-carbonyl)-hexahydro-pyrrolo[3,2-b]pyrrole-1-carbonyl]-butyl}-benzamide] is < 5 µM; for `O=C(N[C@@H](Cc1ccc(O)cc1)C(=O)N1CC[C@@H]2[C@H]1C(=O)CN2C(=O)c1cccs1)c1cccc(Br)c1` [Example 324, (3aR,6aS)-3-Bromo-N-{(1S)-1-(4-hydroxy-benzyl)-2-oxo-2-[6-oxo-4-(thiophene-2-carbonyl)-hexahydro-pyrrolo[3,2-b]pyrrol-1-yl]-ethyl}-benzamide] it is < 5 µM. The same measure, in the same setting: then `CC(C)(C)c1ccc(C(=O)N[C@@H](Cc2cccs2)C(=O)N2CC[C@@H]3[C@H]2C(=O)CN3C(=O)c2ccccc2)cc1` [Example 22, (3aR,6aS)-N-[(1S)-2-(4-Benzoyl-6-oxo-hexahydro-pyrrolo[3,2-b]pyrrol-1-yl)-2-oxo-1-thiophen-2-ylmethyl-ethyl]-4-tert-butyl-benzamide], with < 5 µM; and `CN(C)c1ccc(C(=O)N[C@@H](Cc2ccc(O)cc2)C(=O)N2CC[C@@H]3[C@H]2C(=O)CN3C(=O)c2cccc([N+](=O)[O-])c2)cc1` [Example 321, (3aR,6aS)-4-Dimethylamino-N-{(1S)-1-(4-hydroxy-benzyl)-2-[4-(3-nitro-benzoyl)-6-oxo-hexahydro-pyrrolo[3,2-b]pyrrole-1-yl]-2-oxo-ethyl}-benzamide], with < 5 µM. As for `CC(C)C[C@H](NC(=O)c1ccc(N(C)C)cc1)C(=O)N1CC[C@@H]2[C@H]1C(=O)CN2C(=O)[C@@H](N)C(C)C` [Example 205, (3aR,6aS)-N-{(1S)-1-[4-((2S)-2-Amino-3-methyl-butyryl)-6-oxo-hexahydro-pyrrolo[3,2-b]pyrrole-1-carbonyl]-3-methyl-butyl}-4-dimethylamino-benzamide], the Ki at Wild-type cruzipain is < 5 µM.
